Measured values reported in patent US11141422B2, “Methods for treating pulmonary hypertension” (Chiesi Farmaceutici S.p.A., priority 2011, dated 2021).
Entries after “also recorded” stand apart in the source; their conditions may differ.

Legend:
[1] = tested on: anaesthetized, mechanically ventilated pigs in hypoxia (hypoxic pulmonary vasoconstriction); experiment: Response to cangrelor during hypoxia: haemodynamic measurements in pigs (Protocol 2); format: in vivo; settings: for MPAP decrease compared to hypoxia baseline: hypoxia (FiO2˜0.10), mean±SEM
Protocol: (§1) Haemodynamic measurements were performed in six anaesthetized, mechanically ventilated pigs (30.2±0.7 kg) in normoxia (FiO2˜0.21) and hypoxia (FiO2˜0.10) prior to and during right atrial cangrelor infusion at a loading dose of 30 μg/kg/min for 10 min, and then a continuous infusion at 4 μg/kg/min for 80 min. Another six pigs (29.3±0.5 kg) were investigated in normoxia before and during right atrial infusion of ADP at 70 μg/kg/min for ˜7 min; as well as before and during simultaneous ADP and cangrelor infusion for ˜7 min at doses of 70 μg/kg/min and 4 μg/kg/min, respectively, after a cangrelor loading dose of 30 μg/kg/min for 10 min. All data are mean±SEM.
Protocol 2—Response to Cangrelor During Hypoxia.
Compared to hypoxia baseline, MPAP decreased transiently by 3.3±0.4 (p<0.036) and 3.6±0.6 mmHg (p<0.018), respectively, 10 and 30 min after initiation of cangrelor infusion; but returned to levels not different (p=ns) from baseline 60 and 90 min after initiation of cangrelor infusion. PVR, MRAP, PCWP, MAP, SVR, CO, HR, SV and blood-O2-consumption were unaltered by cangrelor infusion during hypoxia (p=ns).

[2] = tested on: anaesthetized, mechanically ventilated pigs in normoxia (ADP-induced pulmonary vasoconstriction); experiment: Response to simultaneous ADP and cangrelor infusion during normoxia: haemodynamic measurements in pigs (Protocol 4); format: in vivo
Protocol: as §1
Protocol 4—Response to Simultaneous ADP and Cangrelor Infusion.
(§2) The ˜4-7 min MAP measurement after simultaneous ADP and cangrelor infusion was, however, not different (p=ns) from the measurement with ADP infusion alone. Also, SVR decreased (p<0.024) by 3.2±1.2 WU, as compared to baseline, in response to simultaneous ADP and cangrelor infusion. […] Furthermore, the ˜4-7 min PVR and PCWP measurements after simultaneous ADP and cangrelor infusion were lower (p<0.005 and p<0.022, respectively) than the measurements with ADP infusion alone. Also, the ˜4-7 min SV measurement after simultaneous ADP and cangrelor infusion was higher (p<0.02) than the measurement with ADP infusion alone.

[3] = tested on: anaesthetized, mechanically ventilated pigs in normoxia; experiment: Cangrelor infusion alone during normoxia: haemodynamic measurements in pigs; format: in vivo; settings: p=ns
Protocol: as §1, §2

[4] = cited from earlier work
dog thrombosis model = settings: compared with placebo; animals receiving tissue-type plasminogen activator and heparin after thrombus formation; cited from earlier work
[5] = tested on: anaesthetized, mechanically ventilated pigs in normoxia; experiment: Response to ADP infusion during normoxia: haemodynamic measurements in pigs (Protocol 3); format: in vivo
Protocol: as §1
Protocol 3—Response to ADP During Normoxia.
ADP infusion during normoxia increased MPAP, temporarily to peak at 35.2±1.9 mmHg, 19.3±1.6 mmHg higher (p<0.001) than baseline, to then stabilize at a level 10.4±1.6 mmHg higher (p<0.001) than baseline, and 8.9±1.4 mmHg lower (p<0.001) than the peak, after ˜4-7 min. Also, after ˜4-7 min from initiation of ADP infusion, PVR had increased (p<0.002) by 2.8±0.4 WU and PCWP by 2.5±0.7 mmHg (p<0.019), compared to baseline. ADP infusion during normoxia decreased MAP, first to reach a nadir at 39.8±6.1 mmHg, 48.5±6.0 mmHg lower (p<0.001) than baseline, however, then stabilizing, after ˜4-7 min, at a level not different (p=ns) from, although slightly lower than, baseline, and 41.7±8.9 mmHg higher (p<0.001) than the nadir. MRAP, SVR, CO, HR, SV and blood-O2-consumption were unchanged (p=ns) by ADP infusion during normoxia.

[6] = during hypoxia, p=ns, listed as Cangrelor
[7] = simultaneous ADP and cangrelor infusion, normoxia
[8] = simultaneous ADP and cangrelor infusion, after ˜4-7 min
[9] = simultaneous ADP and cangrelor infusion, p=ns
[10] = ˜4-7 min from initiation of ADP infusion

CSCCNc1nc(SCCC(F)(F)F)nc2c1ncn2[C@@H]1O[C@H](COP(=O)(O)OP(=O)(O)C(Cl)(Cl)P(=O)(O)O)[C@@H](O)[C@H]1O [cangrelor]
CO change by cangrelor infusion ([1]; during hypoxia, p=ns): unaltered
HR change by cangrelor infusion ([1]; during hypoxia, p=ns): unaltered
MAP change by cangrelor infusion ([1]; during hypoxia, p=ns): unaltered
MRAP change by cangrelor infusion ([1]; during hypoxia, p=ns): unaltered
PCWP change by cangrelor infusion ([1]; during hypoxia, p=ns): unaltered
PVR change by cangrelor infusion ([1]; during hypoxia, p=ns): unaltered
SV change by cangrelor infusion ([1]; during hypoxia, p=ns): unaltered
SVR change by cangrelor infusion ([1]; during hypoxia, p=ns): unaltered
blood-O2-consumption change by cangrelor infusion ([1]; during hypoxia, p=ns): unaltered
MAP change by cangrelor infusion [1, 6]: without affecting
SVR change by cangrelor infusion [1, 6]: without affecting
blood-O2-consumption change by cangrelor infusion [1, 6]: without affecting
MPAP decrease compared to hypoxia baseline ([1]; 10 min after initiation of cangrelor infusion (30 μg/kg/min for 10 min, then 4 μg/kg/min)): 3.3±0.4 mmHg
MPAP decrease compared to hypoxia baseline ([1]; 30 min after initiation of cangrelor infusion): 3.6±0.6 mmHg
MPAP compared to hypoxia baseline ([1]; hypoxia, 60 and 90 min after initiation of cangrelor infusion, p=ns): not different
MPAP decrease (attenuation of acute HPV) ([1]; hypoxia, 10 min after cangrelor infusion was initiated): ~12%
MPAP decrease (attenuation of acute HPV) ([1]; hypoxia, 30 min after cangrelor infusion was initiated): ~14%
attenuation of the MPAP peak induced by ADP infusion ([2]; normoxia): 34%
sustained MPAP increase induced by ADP infusion ([2]; normoxia): totally prevented
sustained PVR increase induced by ADP infusion ([2]; normoxia): totally prevented
MPAP transient increase compared to baseline (peak) ([2]; normoxia, simultaneous ADP 70 μg/kg/min and cangrelor 4 μg/kg/min after cangrelor loading dose 30 μg/kg/min for 10 min): 7.3±1.8 mmHg
MPAP peak as share of the peak ADP response without cangrelor ([2]; normoxia, simultaneous ADP and cangrelor infusion): ~66%
SVR decrease compared to baseline ([2]; simultaneous ADP and cangrelor infusion): 3.2±1.2 WU
MAP nadir [2, 7]: 64.9±3.4 mmHg
MAP transient decrease compared to baseline [2, 7]: 19.4±3.1 mmHg
MAP stabilized level, higher than the nadir [2, 8]: 12.9±2.2 mmHg
MAP stabilized level, lower than baseline [2, 8]: 6.5±1.2 mmHg
MPAP level, lower than the peak [2, 8]: 7.4±1.5 mmHg
MPAP compared to baseline ([2]; simultaneous ADP and cangrelor infusion, after ˜4-7 min, p=ns): not different
˜4-7 min MPAP measurement compared to ADP infusion alone ([2]; simultaneous ADP and cangrelor infusion, p<0.002): significantly lower
˜4-7 min PVR measurement compared to ADP infusion alone ([2]; simultaneous ADP and cangrelor infusion, p<0.005): lower
˜4-7 min SV measurement compared to ADP infusion alone ([2]; simultaneous ADP and cangrelor infusion, p<0.02): higher
˜4-7 min PCWP measurement compared to ADP infusion alone ([2]; simultaneous ADP and cangrelor infusion, p<0.022): lower
MAP nadir compared to the nadir response to ADP alone ([2]; simultaneous ADP and cangrelor infusion, p<0.027): significantly higher
CO change compared to baseline [2, 9]: unchanged
HR change compared to baseline [2, 9]: unchanged
MRAP change compared to baseline [2, 9]: unchanged
PCWP change compared to baseline [2, 9]: unchanged
PVR change compared to baseline [2, 9]: unchanged
SV change compared to baseline [2, 9]: unchanged
blood-O2-consumption change compared to baseline [2, 9]: unchanged; also recorded: tended to decrease
˜4-7 min CO measurement compared to ADP infusion alone [2, 9]: neither any differences
˜4-7 min HR measurement compared to ADP infusion alone [2, 9]: neither any differences
˜4-7 min MAP measurement compared to ADP infusion alone [2, 9]: not different
˜4-7 min SVR measurement compared to ADP infusion alone [2, 9]: did not differ
MAP decrease to ADP ([2]; with cangrelor): attenuated
PCWP increase with ADP infusion alone ([2]; with cangrelor): attenuated
trend for a SV decrease with ADP infusion alone ([2]; with cangrelor): attenuated
any of the haemodynamic variables [3]: did not alter
time to steady state concentrations in plasma from start of infusion ([4]; bolus 30 μg/kg and infusion 4 μg/kg/min): ≤ 30 min
half-life (clearance from plasma) ([4]; plasma): 3 to 6 min
cyclic flow variation (dog thrombosis model): decreased
myocardial flow (dog thrombosis model): improved
reocclusion (dog thrombosis model): decreased

CCCSc1nc(N[C@@H]2C[C@H]2c2ccc(F)c(F)c2)c2nnn([C@@H]3C[C@H](OCCO)[C@@H](O)[C@H]3O)c2n1 [ticagrelor]
cyclic flow variation (dog thrombosis model): decreased
myocardial flow (dog thrombosis model): improved
reocclusion (dog thrombosis model): decreased

Nc1ncnc2c1ncn2[C@@H]1O[C@H](COP(=O)(O)OP(=O)(O)O)[C@@H](O)[C@H]1O [ADP, adenosine diphosphate]
MAP nadir ([5]; ADP infusion): 39.8±6.1 mmHg
MAP nadir, lower than baseline ([5]; ADP infusion): 48.5±6.0 mmHg
MPAP peak, higher than baseline ([5]; ADP infusion 70 μg/kg/min): 19.3±1.6 mmHg
MPAP peak ([5]; ADP infusion 70 μg/kg/min, mean±SEM): 35.2±1.9 mmHg
MAP stabilized level, higher than the nadir ([5]; ADP infusion, after ˜4-7 min): 41.7±8.9 mmHg
MPAP stabilized level, higher than baseline ([5]; ADP infusion, after ˜4-7 min): 10.4±1.6 mmHg
MPAP stabilized level, lower than the peak ([5]; ADP infusion, after ˜4-7 min): 8.9±1.4 mmHg
MAP stabilized level compared to baseline ([5]; ADP infusion, after ˜4-7 min, p=ns): not different
CO change by ADP infusion ([5]; p=ns): unchanged; also recorded: tended to decrease
HR change by ADP infusion ([5]; p=ns): unchanged
MRAP change by ADP infusion ([5]; p=ns): unchanged; also recorded: tended to increase
SV change by ADP infusion ([5]; p=ns): unchanged; also recorded: tended to decrease
SVR change by ADP infusion ([5]; p=ns): unchanged
blood-O2-consumption change by ADP infusion ([5]; p=ns): unchanged; also recorded: tended to decrease
PCWP increase compared to baseline [5, 10]: 2.5±0.7 mmHg
PVR increase compared to baseline [5, 10]: 2.8±0.4 WU
